Several values for one entry are separate records, joined by “and”; a condition that tells them apart may be missing. Identical values can stand only once.
Experiments:
Format in all cases: cell-based, human
[1] = Cell viability assay (WST-8), KYSE70; settings: human, KYSE70 cells, replicates, read-out: cell viability relative to control
Description: (§1) Cell viability assay was performed as previously described. The effect of DCN1 inhibitors on cell growth was evaluated by a WST-8 [2-(2-methoxy-4-nitrophenyl)-3-(4-nitrophenyl)-5-(2,4-disulfophenyl)-2H-tetrazolium, monosodium salt assay (Dojindo Molecular Technologies, Inc). Cells (2000–3000 cells in each well) were seeded in 96-well tissue culture plates in medium (100 μL) and treated with serial dilution of DCN1 inhibitors for 3 days. At the end of incubation, WST-8 dye (20 μL) was added to each well and incubated for 1–3 h, then the absorbance was measured in a microplate reader (Molecular Devices) at 450 nm. Cell growth inhibition was evaluated as the ratio of the absorbance of the sample to that of the control. The values were inserted into Prism software, and the curves and the EC50 values were produced by Prism software.

KYSE70 cells = assay: Cell viability assay (WST-8), KYSE70; settings: for cell viability relative to control: replicates
Description: as §1

[2] = Cell viability assay (WST-8), U2OS; settings: human, U2OS cells, replicates, read-out: cell viability relative to control
Description: as §1

U2OS cells = assay: Cell viability assay (WST-8), U2OS; settings: for cell viability relative to control: replicates
Description: as §1

[3] = Cell viability assay (WST-8), HCT116; settings: human, HCT116 cells, replicates, read-out: cell viability relative to control
Description: as §1

HCT116 cells = assay: Cell viability assay (WST-8), HCT116; settings: for cell viability relative to control: replicates
Description: as §1

neddylation of cullin 3 = assay: Western blot, cullin 3 neddylation in U2OS cells; settings: U2OS, Fig. 6c
Description: (§2) Western blotting was performed as described previously. Treated cells were lysed by RIPA buffer supplemented with protease inhibitor. The expression level of indicated proteins was examined by immunoblotting analysis and GAPDH was used as the loading control. Antibodies were purchased commercially: cullin 1 (sc-17775, 1:500 dilution) and cullin 2 (sc-166506, 1:500 dilution) from Santa Cruz Biotech (Santa Cruz, CA); cullin 4A (PA5-14542, 1:1000 dilution), cullin 4B (PA5-50647, 1:1000 dilution), and DCN3 (DCUN1D3, PA5-44000, 1:1000 dilution) from Thermo Fisher Scientific (Wayne, MI); cullin 3 (2759, 1:1000), NRF2 (12721, 1:1000 dilution), HO-1 (70081, 1:1000 dilution), and Bim (2819, 1:1000 dilution) from Cell Signaling Technology (Boston, MA); DCN1 (GWB-E3D700, 1:1000 dilution) from GenWay Biotech (San Diego, CA); and cullin 5 (A302-173A, 1:500 dilution) from Bethyl Labs (Montgomery, TX). Results are representative of two independent experiments.

[4] = system: neddylation of cullin 1, 2, 4A, 4B, and 5; assay: Western blot, neddylation of other cullin members
Description: as §2

four cancer cell lines = assay: Cell viability assay (WST-8), four cancer cell lines; settings: concentrations up to 1000 nM, 72 h
Description: as §1

MDA-MB-231 cells = assay: Cell viability assay (WST-8), MDA-MB-231; settings: for cell viability relative to control: replicates
Description: as §1

[5] = Cell viability assay (WST-8), MDA-MB-231; settings: human, MDA-MB-231 cells, replicates, read-out: cell viability relative to control
Description: as §1

`NS(=O)(=O)OC[C@@H]1C[C@@H](n2ccc3c(N[C@H]4CCc5ccccc54)ncnc32)C[C@@H]1O` [MLN4924] gave a viability at 72 h ([1]; conc 10, 72 h) of 110%, a viability at 72 h ([1]; conc 30, 72 h) of 76.4% and a viability at 72 h ([1]; conc 100, 72 h) of 59.5%. For the same compound, the viability at 72 h ([1]; conc 300, 72 h) was 41.9%, the viability at 72 h ([1]; conc 1000, 72 h) was 31% and the EC50 (KYSE70 cells; Homo sapiens, KYSE-70, 72 h, cell line assigned from panel order, read-out: EC50, cell growth inhibition) was 266 nM. For the same compound, the “cell viability relative to control” value (KYSE70 cells; conc 3, 72 h) was 119.091 and 98.7603 and 92.6446, the “cell viability relative to control” value (KYSE70 cells; conc 10, 72 h) was 116.984 and 100.041 and the “cell viability relative to control” value (KYSE70 cells; conc 30, 72 h) was 82.3967. For the same compound, the “cell viability relative to control” value (KYSE70 cells; conc 100, 72 h) was 57.9752, the “cell viability relative to control” value (KYSE70 cells; conc 300, 72 h) was 39.3388 and the “cell viability relative to control” value (KYSE70 cells; conc 1000, 72 h) was 29.2149. For the same compound, the viability at 72 h ([2]; conc 10, 72 h) was 108%, the viability at 72 h ([2]; conc 30, 72 h) was 97.3% and the viability at 72 h ([2]; conc 100, 72 h) was 50.8%. The viability at 72 h ([2]; conc 1000, 72 h) was 21%, the EC50 (U2OS cells; Homo sapiens, U2OS, 72 h, cell line assigned from panel order, read-out: EC50, cell growth inhibition) was 209 nM and the “cell viability relative to control” value (U2OS cells; conc 3, 72 h) was 108.902 and 87.9268 and 99.0244. For the same compound, the “cell viability relative to control” value (U2OS cells; conc 10, 72 h) was 107.561 and 98.1707, the “cell viability relative to control” value (U2OS cells; conc 30, 72 h) was 105.122 and 104.756 and the “cell viability relative to control” value (U2OS cells; conc 100, 72 h) was 49.6951 and 43.1707. For the same compound, the “cell viability relative to control” value (U2OS cells; conc 300, 72 h) was 47.5122 and 35 and 24.2561, the “cell viability relative to control” value (U2OS cells; conc 1000, 72 h) was 34.8293 and 26.6585 and the viability at 72 h ([3]; conc 3, 72 h) was 103%. For the same compound, the viability at 72 h ([3]; conc 10, 72 h) was 118%, the viability at 72 h ([3]; conc 30, 72 h) was 106% and the viability at 72 h ([3]; conc 300, 72 h) was 26.5%. For the same compound, the viability at 72 h ([3]; conc 1000, 72 h) was 27.6%, the EC50 (HCT116 cells; Homo sapiens, HCT-116, 72 h, cell line assigned from panel order, read-out: EC50, cell growth inhibition) was 294 nM and the “cell viability relative to control” value (HCT116 cells; conc 3, 72 h) was 93.0769 and 97.803. For the same compound, the “cell viability relative to control” value (HCT116 cells; conc 10, 72 h) was 99.5045 and 108.03, the “cell viability relative to control” value (HCT116 cells; conc 30, 72 h) was 98.1868 and 105.151 and the “cell viability relative to control” value (HCT116 cells; conc 100, 72 h) was 42.5676 and 63.1319 and 54.6212. The “cell viability relative to control” value (HCT116 cells; conc 300, 72 h) was 39.0549 and 40.989, the “cell viability relative to control” value (HCT116 cells; conc 1000, 72 h) was 32.8022 and 29.945 and the “time within which the neddylation of cullin 3 is effectively inhibited” value (neddylation of cullin 3) was ≤ 30 min. For the same compound, the “inhibition of neddylation of cullin members” value ([4]; THLE2, Fig. 6b) was “potently inhibits neddylation of all cullins”, the “time within which the neddylation of cullin 1 is effectively inhibited” value ([4]; U2OS, Fig. 6c) was ≤ 30 min and the “cytotoxicity / cell viability” value (four cancer cell lines) was “potently inhibits cell viability”. The EC50 (MDA-MB-231 cells; Homo sapiens, MDA-MB-231, 72 h, cell line assigned from panel order, read-out: EC50, cell growth inhibition) was 154 nM, the “cell viability relative to control” value (MDA-MB-231 cells; conc 3, 72 h) was 94.1379 and 99.1954 and the “cell viability relative to control” value (MDA-MB-231 cells; conc 10, 72 h) was 109.785 and 104.516. For the same compound, the “cell viability relative to control” value (MDA-MB-231 cells; conc 30, 72 h) was 84.086 and 84.3011, the “cell viability relative to control” value (MDA-MB-231 cells; conc 100, 72 h) was 59.6774 and 48.8172 and the “cell viability relative to control” value (MDA-MB-231 cells; conc 300, 72 h) was 28.4946 and 44.3011. The “cell viability relative to control” value (MDA-MB-231 cells; conc 1000, 72 h) was 18.2796 and 26.5591, the viability at 72 h ([5]; conc 3, 72 h) was 106% and the viability at 72 h ([5]; conc 10, 72 h) was 98.2%. For the same compound, the viability at 72 h ([5]; conc 30, 72 h) was 78.8%, the viability at 72 h ([5]; conc 100, 72 h) was 43.4% and the viability at 72 h ([5]; conc 300, 72 h) was 25.5%. For the same compound, the viability at 72 h ([5]; conc 1000, 72 h) was 13.7%.
